Reference: US12606543B2, “Indole derivatives as serotonergic agents useful for the treatment of disorders related thereto” (priority 2023, dated 2026)

Experiments:
[1] = Plasma protein binding by equilibrium dialysis, human; format: in vitro ADME; conditions: for recovery at 6 h, 1 µM / fraction unbound at 6 h, 1 μM: human, plasma; for fraction unbound at 6 h, 1 μM: read-out: % Bound (converted)
Description: (§1) The final concentration of compound was 1 μM. The final concentration of DMSO was 0.5%. Ketoconazole was used as positive control in the assay.
(§2) The assay was performed in duplicate.
(§3) All calculations were carried out using Microsoft Excel. […] The percentages of bound compound were calculated as follows: […]
(§4) Ketoconazole was used as positive control in the assay.

[2] = Plasma protein binding by equilibrium dialysis, dog; format: in vitro ADME; conditions: for recovery at 6 h, 1 µM: dog
Description: as §1, §2, §3, §4

[3] = Plasma protein binding by equilibrium dialysis, rat
Description: 1. The Frozen Plasma (Stored at −80° C.) was Thawed Immediately in a 37° C. Water Bath.
(§5) The working solution of test compounds and control compound was prepared in DMSO at the concentration of 200 μM, and then the working solution was spiked into plasma. The final concentration of compound was 1 μM. The final concentration of DMSO was 0.5%. Ketoconazole was used as positive control in the assay.
The dialysis membranes were soaked in ultrapure water for 60 minutes to separate strips, then in 20% ethanol for 20 minutes, finally in dialysis buffer for 20 minutes.
The dialysis set up was assembled according to the manufacturer's instruction. Each Cell was with 150 μL of plasma sample and dialyzed against equal volume of dialysis buffer (PBS). The assay was performed in duplicate. The dialysis plate was sealed and incubated in an incubator at 37° C. with 5% CO2 at 100 rpm for 6 hours. At the end of incubation, 50 μL of samples from both buffer and plasma chambers were transferred to wells of a 96-well plate.
50 μL of plasma was added to each buffer samples and an equal volume of PBS was supplemented to the collected plasma sample. 400 μL of precipitation buffer acetonitrile containing internal standards (IS, 200 nM labetalol, 100 nM tolbutamide and 100 nM ketoprofen) was added to precipitate protein and release compounds. Samples were vortexed for 2 minutes and centrifuged for 30 minutes at 3,220 g. Aliquot of 50 μL of the supernatant was diluted by 150 μL acetonitrile containing internal standards: ultra-pure H2O=1:1, and the mixture was used for LC-MS/MS analysis.
All calculations were carried out using Microsoft Excel. The concentrations of test compounds in the buffer and plasma chambers were determined from peak area ratios. The percentages of bound compound were calculated as follows: […]
as §5, with “[…].” for “μM.”

[4] = Plasma protein binding by equilibrium dialysis, mouse; format: in vitro ADME; conditions: for recovery at 6 h, 1 µM: CD-1, mouse, plasma
Description: as §1, §2, §3, §4

[5] = human plasma, equilibrium dialysis, 37° C., 6 hours
[6] = mouse plasma, equilibrium dialysis, 37° C., 6 hours

CC(=O)N1CCN(c2ccc(OCC3COC(Cn4ccnc4)(c4ccc(Cl)cc4Cl)O3)cc2)CC1 (stereo not shown) [Ketoconazole, reference compound]
% Remaining @ 6 hours ([1]; Human plasma, 1 μM, 6 hours, 37° C.): 114.03% | % Remaining @ 6 hours ([1]; human plasma, 6 hours): 99.64% | recovery at 6 h, 1 µM ([1]; Human plasma, 1 μM, equilibrium dialysis 6 hours): 112% | fraction unbound at 6 h, 1 μM ([1]; Human plasma, 1 μM, equilibrium dialysis 6 hours, 37° C.): 0.0088 | recovery at 6 h, 1 µM [1, 5]: 101% | fraction unbound at 6 h, 1 μM [1, 5]: 0.0076 | recovery at 6 h, 1 µM ([2]; Beagle, Dog plasma, 1 μM, equilibrium dialysis 6 hours): 87.2% | recovery at 6 h, 1 µM ([2]; Beagle, dog plasma, equilibrium dialysis, 37° C., 6 hours): 86.1% | fraction unbound at 6 h, 1 μM ([2]; Beagle, dog plasma, equilibrium dialysis, 37° C., 6 hours, read-out: % Bound (converted)): 0.0105 | % Remaining @ 6 hours ([2]; Dog plasma, 1 μM, 6 hours, 37° C.): 92.22% | % Remaining @ 6 hours ([2]; dog plasma, 6 hours): 87.36% | % Remaining @ 6 hours ([3]; Rat plasma, 1 μM, 37° C.): 101.20% | recovery at 6 h, 1 µM ([3]; SD, rat): 105% | recovery at 6 h, 1 µM ([3]; Sprague-Dawley (SD), rat): 101% | fraction unbound at 6 h, 1 μM ([3]; Sprague-Dawley, rat, plasma): 0.0045 | % Remaining @ 6 hours ([3]; rat plasma): 109.42% | recovery at 6 h, 1 µM ([4]; Mouse plasma, 1 μM, equilibrium dialysis 6 hours): 109% | recovery at 6 h, 1 µM [4, 6]: 94.7% | fraction unbound at 6 h, 1 μM ([4]; CD-1, Mouse plasma, 1 μM, equilibrium dialysis 6 hours, 37° C., read-out: % Bound (converted)): 0.0068 | % Remaining @ 6 hours ([4]; Mouse plasma, 1 μM, 6 hours, 37° C.): 103.60% | % Remaining @ 6 hours ([4]; mouse plasma, 6 hours): 108.54% | % Bound [4, 6]: 99.32%
